Where “and” joins values, the source holds several entries; their conditions need not be identical. Identical values can stand only once.
Tests used:
[1] = tested on: dAGGG(TTAGGG)3 (DNA, G4) AGGGTTAGGGTTAGGGTTAGGG; experiment: UV melting at 295 nm; details: K+ 100 mM (KCl); 25 mM Tris–HCl pH 7.4; 5 μM DNA, 10 μM ligand; 2.27 °C higher than tetrachloride
[2] = tested on: d[(TTAGGG)4TTA] (DNA, G4) TTAGGGTTAGGGTTAGGGTTAGGGTTA; experiment: ESI-TOF-MS fraction of bound G-quadruplex; details: NH4+ 50 mM (ammonium acetate); pH 7.6, 50 % methanol; equimolar 10 μM
[3] = tested on: d[(TTAGGG)4TTA] (DNA, G4) TTAGGGTTAGGGTTAGGGTTAGGGTTA; experiment: ESI-TOF-MS; details: NH4+ 50 mM (ammonium acetate), pH 7.6, 50 % methanol
[4] = tested on: r[(UUAGGG)4UUA] (RNA, G4) UUAGGGUUAGGGUUAGGGUUAGGGUUA; experiment: ESI-TOF-MS; details: NH4+ 50 mM (ammonium acetate); pH 7.6, 50 % methanol, equimolar 5 or 10 μM; first of two stepwise constants

Row | binding [1] | RBA [2] | K 1 ([3]; equimolar 5 or 10 μM, first of two stepwise constants) | K 1 (column head misprinted K 2) [4] | binding ([3]; tosyl adducts seen in equimolar mixture with TMPyP4 tetratosylate, 10 μM) | SMILES
1 | yes | 85.96% and 72.28% | (1.87 ± 0.19) × 10^6 M^−1 | (5.62 ± 0.71) × 10^7 M^−1 |  | C[n+]1ccc(-c2c3nc(c(-c4cc[n+](C)cc4)c4ccc([nH]4)c(-c4cc[n+](C)cc4)c4nc(c(-c5cc[n+](C)cc5)c5ccc2[nH]5)C=C4)C=C3)cc1
2 |  |  |  |  | yes | Cc1ccc(S(=O)(=O)O)cc1
